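Compound exposure: 48 hours, 5 concentrations, 96-well plates. At the GI50, growth is halved. TGI: concentration producing complete growth inhibition.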
Experiments:
Assay in all cases: DTP human tumour cell line panel, 48 h
RPMI-8226 leukemia = system: RPMI-8226 leukemia
TK-10 renal = system: TK-10 renal
NCI-H522 lung = system: NCI-H522 lung
SK-MEL-2 melanoma = system: SK-MEL-2 melanoma
HL-60(TB) leukemia = system: HL-60(TB) leukemia
UACC-62 melanoma = system: UACC-62 melanoma
SF-268 CNS = system: SF-268 CNS
NCI/ADR-RES ovarian = system: NCI/ADR-RES ovarian
MCF7 breast = system: MCF7 breast
MDA-MB-435 = system: MDA-MB-435

Row | SMILES | TGI (RPMI-8226 leukemia) [µM] | TGI (TK-10 renal) [µM] | TGI (NCI-H522 lung) [µM] | TGI (SK-MEL-2 melanoma) [µM] | TGI (HL-60(TB) leukemia) [µM] | TGI (UACC-62 melanoma) [µM] | TGI (SF-268 CNS) [µM] | TGI (NCI/ADR-RES ovarian) [µM] | TGI (MCF7 breast) [µM] | TGI (MDA-MB-435) [µM] | GI50 (RPMI-8226 leukemia) [µM] | GI50 (TK-10 renal) [µM] | GI50 (NCI-H522 lung) [µM] | GI50 (SK-MEL-2 melanoma) [µM] | GI50 (NCI/ADR-RES ovarian) [µM] | GI50 (MCF7 breast) [µM] | GI50 (UACC-62 melanoma) [µM] | GI50 (MDA-MB-435) [µM] | GI50 (SF-268 CNS) [µM] | GI50 (HL-60(TB) leukemia) [µM]
1 | Cc1nc(N)nc(CCC(=O)Nc2cccc(C(F)(F)F)c2)c1-c1ccc(Cl)cc1 | > 100 | > 100 | > 100 | > 100 | > 100 | > 100 | > 100 |  |  |  |  |  |  |  |  |  |  |  |  | 
2 | CCc1ccccc1NC(=O)c1cccc([N+](=O)[O-])c1O | > 100 |  | 62.6 |  | > 100 | > 100 | > 100 |  |  |  |  |  |  |  |  |  |  |  |  | 
3 | Nc1ncc(Cc2ccc3c(c2)OCO3)c(N)n1 | > 100 | > 100 |  |  | > 100 | > 100 | > 100 | > 100 | > 100 | > 100 |  |  |  |  |  |  |  |  |  | 
4 | CSC1=Nc2c(c(C)c(C)n2COC(CO)CO)C2=NC(=O)CN12 | > 100 | > 100 | > 100 | > 100 |  | > 100 | > 100 | > 100 | > 100 | > 100 | > 100 | > 100 | > 100 | > 100 | > 100 | > 100 | > 100 | > 100 | > 100 | 
5 | O=C1CC(c2ccccc2)Oc2ccccc21 (stereo unspecified) | 37.9 | > 100 |  | 86.7 | 49.5 | > 100 | > 100 | > 100 | > 100 | > 100 |  |  |  |  |  |  |  |  |  | 
6 | COC(=O)OC1C(O[C@H]2C[C@H]3[C@@H]4CC=C5C[C@@H](O)CC[C@]5(C)[C@H]4CC[C@]3(C)[C@H]2[C@H](C)C(=O)CCC(C)C)OCC(O)C1OC1OCC(O)C(O)C1OC(=O)c1ccc(OC)cc1 (stereo partly specified) | 0.00491 | 17.5 | 0.183 | 0.0855 |  | 0.0158 | 2.24 | > 27.5 | 0.545 | 0.0868 | < 0.00275 | 0.496 | 0.0146 | 0.00538 | > 27.5 | 0.0108 | 0.00621 | 0.00874 | 0.0137 | 
7 | O=[N+]([O-])c1ccc(Cl)c2c([N+](=O)[O-])cccc12 | > 10 | > 10 |  | > 10 | 7.16 | > 10 | > 10 |  | > 10 | 9.61 |  |  |  |  |  |  |  |  |  | 
8 | COC(=O)C1C(C(=O)OC)C2C(=O)C3C(C(=O)OC)C(C(=O)OC)C3C(=O)C12 (stereo unspecified) |  | > 100 | > 100 | > 100 | > 100 |  | > 100 |  |  |  |  |  |  |  |  |  |  |  |  | 
9 | N#CC(C(=O)C(=O)Nc1c(Cl)cccc1Cl)c1ccccc1 (stereo unspecified) | > 100 | > 100 |  | > 100 | > 100 | > 100 | > 100 |  |  |  | > 100 | > 100 |  | > 100 |  |  | > 100 |  | > 100 | > 100
10 | COc1cc(Nc2cnc3ccc(C(F)(F)F)cc3n2)cc(OC)c1OC | > 100 | > 100 |  | > 100 | > 100 |  | > 100 |  |  |  |  |  |  |  |  |  |  |  |  | 
11 | O=[N+]([O-])c1ccccc1C1SCc2nc3ccccc3n21 (stereo unspecified) |  | > 100 | > 100 | > 100 | > 100 | > 100 | > 100 |  |  |  |  |  |  |  |  |  |  |  |  | 

Source: PubChem BioAssay (NCI)
